The source of these data is patent EP0612472A1, “Herbicidal combinations comprising triazole derivatives (III)” (MONSANTO EUROPE S.A., priority 1993, dated 1994).

Each structure is given as a SMILES string.

In the experiment the test system is Galium aparine. Description: field experiment, tank mix, Belgium. It counts as in vivo. The source says:
A field experiment has been carried out during winter time (November 1990) in Belgium.
Application was made at 250 l/ha using standard spraying equipment (Backpack sprayer; Nozzles XR 11003). Randomised block design with 3 replicates was used. Unit plot size was 2 X 6m². The soil surface was moist. Total ground cover: 20% crop, 10% weeds and 70% bare ground.
The plant species tested and corresponding true leave stage are:
The herbicides tested are the herbicide A as described in Example 1 in tank mix with another phytohormone type of herbicide, that is mecoprop. 0.2% surfactant (Tween® 20) has been added to the tank.
The results in table 2 hereafter are presented as average values of three replications.

On to `Cc1cc(Cl)ccc1OC(C)C(=O)O` (centres unmarked) [mecoprop], for which the “control, GALAP 120 DAT” value is, setting by setting: (RATE 1000 g a.i/ha) 73.3%; (RATE 1200 g a.i/ha) 66.7%.
